Experiments:
ASK1 = ASK1 (Homo sapiens (Human), UniProt Q99683); assay: ASK1 Kinase Assay (Promega ASK1 Kinase Enzyme System, ADP-Glo); format: biochemical; conditions: enzyme 50 nM, ATP 10 μM
Description: The ASK1 enzymatic assay was run following Promega ASK1 Kinase Enzyme System (Cat #V3881). The kit provides the protocol, enzymes and all reagents necessary to run an assay. Firstly, the compounds, enzyme, substrate and ATP were diluted in provided assay buffer. The final concentration of the enzyme was 50 nM, substrate (Myelin basic protein) 1 μg/ml and ATP 10 μM. The compound and the enzyme were pre-incubated in a 384 well white solid bottom plate (Greiner, Cat#784075) for 10 minutes. After incubation, the substrate and ATP were added and incubated for further 60 minutes. After 60 minutes, ADP-Glo™ was added and plate was incubated for another 40 minutes. After 40 minutes, Kinase Detection Reagent was added and the plate was incubated for 45 minutes. After 45 minutes, plate was read on Perkin Elmer EnVision using luminescence read (0.5 seconds/well).

[1] = system: LPS-induced TNFalpha in Human PBMCs; assay: Inhibition of LPS-induced TNFalpha in Human PBMCs; format: cell-based; conditions: PBMC, 100 ng/ml LPS, 6 hr, read-out: TNFa Inhibition IC50
Description: Cryopreserved human PBMCs were obtained from AllCells (cat# PB003F). After thawing/dilution protocols using RPMI medium supplemented with 5% FBS (heat inactivated), 100 ul/well of 1×10^6 cells/ml were plated into 96 well tissue culture plates (Corning). Cells were then pre-incubated for 1 hr at 37° C. in humidified 5% CO2 and 95% air with test compounds diluted in DMSO (final DMSO concentration 0.3%). Each compound was tested at 10 concentrations in duplicate wells. After the pre-incubation, 100 ng/ml LPS (E. Coli; Sigma) in RPMI media with 5% FBS was added for a 6 hr incubation at 37° C. in humidified 5% CO2 and 95% air. Controls on each plate included cells and LPS only, cells and media only (no LPS), and media only. After the 6 hr incubation, plates were centrifuged and the supernatants transferred to a new plate and frozen for subsequent TNFalpha analysis. Human TNFalpha was analyzed by ELISA according to the manufacturer's instructions (BD Sciences, BD OptEIA™ Cat#550610) and analyzed on a SpectraMax M series (Molecular Devices) microplate reader at OD 450 nm. IC50s were calculated using XLFit4 curve fitting software (IDBS) and a 4-parameter one-site sigmoid dose response fit.

Chain of ASK1 (Q99683 649-946 limits assumed): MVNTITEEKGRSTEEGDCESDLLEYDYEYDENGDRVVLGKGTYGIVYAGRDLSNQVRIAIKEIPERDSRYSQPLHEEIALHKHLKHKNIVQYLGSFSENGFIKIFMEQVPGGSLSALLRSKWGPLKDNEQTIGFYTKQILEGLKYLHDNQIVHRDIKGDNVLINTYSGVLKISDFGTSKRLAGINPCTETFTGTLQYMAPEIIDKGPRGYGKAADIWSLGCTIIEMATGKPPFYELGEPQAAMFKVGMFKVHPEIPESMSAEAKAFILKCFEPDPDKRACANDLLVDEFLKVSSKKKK

Row | Structure (SMILES) | IC50 (ASK1) | IC50 [1]
1 | O=C1c2cc(-c3cccnc3)ccc2CN1c1cccc(-c2nncn2C2CC2)n1 [Compound 40, 2-(6-(4-cyclopropyl-4H-1,2,4-triazol-3-yl)pyridin-2-yl)-6-(pyridin-3-yl)isoindolin-1-one] | – | < 2000 nM
2 | Cc1ccncc1-c1ccc2c(c1)C(=O)N(c1cccc(-c3nncn3C3CC3)n1)C2 [Compound 41, 2-(6-(4-cyclopropyl-4H-1,2,4-triazol-3-yl)pyridin-2-yl)-6-(4-methylpyridin-3-yl)isoindolin-1-one] | – | < 2000 nM
3 | O=C1c2cc(-c3ccc(C4CC4)nc3)ccc2CN1c1cccc(-c2nncn2C2CC2)n1 [Compound 46, 2-(6-(4-cyclopropyl-4H-1,2,4-triazol-3-yl)pyridin-2-yl)-6-(6-cyclopropylpyridin-3-yl)isoindolin-1-one] | – | < 2000 nM
4 | Cn1ccnc1-c1ccc2c(c1)C(=O)N(c1cccc(-c3nncn3C3CC3)n1)C2 [Compound 57, 2-(6-(4-cyclopropyl-4H-1,2,4-triazol-3-yl)pyridin-2-yl)-6-(1-methyl-1H-imidazol-2-yl)isoindolin-1-one] | < 200 nM | –
5 | O=C1c2cc(-c3cccnn3)ccc2CN1c1cccc(-c2nncn2C2CC2)n1 [Compound 59, 2-(6-(4-cyclopropyl-4H-1,2,4-triazol-3-yl)pyridin-2-yl)-6-(pyridazin-3-yl)isoindolin-1-one] | < 200 nM | –
6 | O=C1c2cc(-c3cnc(C4CC4)cn3)ccc2CN1c1cccc(-c2nncn2C2CC2)n1 [Compound 60, 2-(6-(4-cyclopropyl-4H-1,2,4-triazol-3-yl)pyridin-2-yl)-6-(5-cyclopropylpyrazin-2-yll)isoindolin-1-one] | – | > 10 nM
7 | O=C1c2cc(-c3ccc(C4CC4)nn3)ccc2CN1c1cccc(-c2nncn2C2CC2)n1 [Compound 61, 2-(6-(4-cyclopropyl-4H-1,2,4-triazol-3-yl)pyridin-2-yl)-6-(6-cyclopropylpyridazin-3-yl)isoindolin-1-one] | < 200 nM | –
8 | COc1cc2c(cc1-c1cccnc1)C(=O)N(c1cccc(-c3nncn3C3CC3)n1)C2 [Compound 66, 2-(6-(4-cyclopropyl-4H-1,2,4-triazol-3-yl)pyridin-2-yl)-5-methoxy-6-(pyridin-3-yl)isoindolin-1-one] | – | < 2000 nM
9 | O=C1c2ccccc2CN1c1cccc(-c2nnc3n2[C@H](CO)CC3)n1 [Compound 81, (S)-2-(6-(5-(Hydroxymethyl)-6,7-dihydro-5H-pyrrolo[2,1-c][1,2,4]triazol-3-yl)pyridin-2-yl)isoindolin-1-one] | 1000 to 10000 nM | –
10 | O=C1c2ccccc2CN1c1cccc(-n2nncc2C2CC2)n1 [Compound 83, 2-(6-(5-cyclopropyl-1H-1,2,3-triazol-1-yl)pyridin-2-yl)isoindolin-1-one] | < 200 nM | –
11 | O=C1c2ccccc2CN1c1cccc(-n2ccnn2)n1 [Compound 84, 2-(6-(1H-1,2,3-triazol-1-yl)pyridin-2-yl)isoindolin-1-one] | 200 to 1000 nM | –
12 | O=C1c2ccccc2CN1c1nccc(-c2nncn2C2CC2)n1 [Compound 86, 2-(4-(4-cyclopropyl-4H-1,2,4-triazol-3-yl)pyrimidin-2-yl)isoindolin-1-one] | 1000 to 10000 nM | –
13 | O=c1c2ccccc2[nH]n1-c1cccc(-c2nncn2C2CC2)n1 [Compound 87, 2-(6-(4-cyclopropyl-4H-1,2,4-triazol-3-yl)pyridin-2-yl)-1,2-dihydro-3H-indazol-3-one] | 1000 to 10000 nM | –
14 | O=c1c2ccccc2sn1-c1cccc(-c2nncn2C2CC2)n1 [Compound 89, 2-(6-(4-cyclopropyl-4H-1,2,4-triazol-3-yl)pyridin-2-yl)benzo[d]isothiazol-3(2H)-one] | 1000 to 10000 nM | –

Further lines, with some results ahead:

Row | IC50 (ASK1) | Structure (SMILES) | IC50 [1]
15 | < 200 nM | CN(C)C(=O)c1ccc2c(c1)CN(c1cccc(-c3nncn3C3CC3)n1)C2=O [Compound 2, 2-(6-(4-Cyclopropyl-4H-1,2,4-triazol-3-yl)pyridin-2-yl)-N,N-dimethyl-1-oxoisoindoline-5-carboxamide] | 2000 to 10000 nM
16 | < 200 nM | O=C(c1ccc2c(c1)CN(c1cccc(-c3nncn3C3CC3)n1)C2=O)N1CCOCC1 [Compound 7, 2-(6-(4-cyclopropyl-4H-1,2,4-triazol-3-yl)pyridin-2-yl)-5-(morpholine-4-carbonyl)isoindolin-1-one] | > 10 nM
17 | < 200 nM | CN1CCN(C(=O)c2ccc3c(c2)CN(c2cccc(-c4nncn4C4CC4)n2)C3=O)CC1 [Compound 10, 2-(6-(4-cyclopropyl-4H-1,2,4-triazol-3-yl)pyridin-2-yl)-5-(4-methylpiperazine-1-carbonyl)isoindolin-1-one] | 2000 to 10000 nM
18 | 200 to 1000 nM | O=C1c2cc(-c3cncc(F)c3)ccc2CN1c1cccc(-c2nncn2C2CC2)n1 [Compound 55, 2-(6-(4-cyclopropyl-4H-1,2,4-triazol-3-yl)pyridin-2-yl)-6-(5-fluoropyridin-3-yl)isoindolin-1-one] | –
19 | < 200 nM | O=C1c2cc(-c3cnc(C4CC4)nc3)ccc2CN1c1cccc(-c2nncn2C2CC2)n1 [Compound 56, 2-(6-(4-cyclopropyl-4H-1,2,4-triazol-3-yl)pyridin-2-yl)-6-(2-cyclopropylpyrimidin-5-yl)isoindolin-1-one] | –
20 | < 200 nM | O=C1c2cc(-c3ccccn3)ccc2CN1c1cccc(-c2nncn2C2CC2)n1 [Compound 58, 2-(6-(4-cyclopropyl-4H-1,2,4-triazol-3-yl)pyridin-2-yl)-6-(pyridin-2-yl)isoindolin-1-one] | –
21 | < 200 nM | O=C1c2cc(-n3cc(C4CC4)nn3)ccc2CN1c1cccc(-c2nncn2C2CC2)n1 [Compound 62, 6-(4-cyclopropyl-1H-1,2,3-triazol-1-yl)-2-(6-(4-cyclopropyl-4H-1,2,4-triazol-3-yl)pyridin-2-yl)isoindolin-1-one] | –
22 | < 200 nM | O=C1c2cc(-c3cccnc3)c(F)cc2CN1c1cccc(-c2nncn2C2CC2)n1 [Compound 63, 2-(6-(4-cyclopropyl-4H-1,2,4-triazol-3-yl)pyridin-2-yl)-5-fluoro-6-(pyridin-3-yl)isoindolin-1-one] | –
23 | < 200 nM | O=C1c2cc(-c3cccnc3)c(Cl)cc2CN1c1cccc(-c2nncn2C2CC2)n1 [Compound 65, 5-chloro-2-(6-(4-cyclopropyl-4H-1,2,4-triazol-3-yl)pyridin-2-yl)-6-(pyridin-3-yl)isoindolin-1-one] | –
24 | < 200 nM | CN(C)c1cc2c(cc1-c1cccnc1)C(=O)N(c1cccc(-c3nncn3C3CC3)n1)C2 [Compound 67, 2-(6-(4-cyclopropyl-4H-1,2,4-triazol-3-yl)pyridin-2-yl)-5-(dimethylamino)-6-(pyridin-3-yl)isoindolin-1-one] | –
25 | < 200 nM | COC(=O)c1ccc2c(c1)C(=O)N(c1cccc(-c3nncn3C3CC3)n1)C2 [Compound 72, methyl 2-(6-(4-cyclopropyl-4H-1,2,4-triazol-3-yl)pyridin-2-yl)-3-oxoisoindoline-5-carboxylate] | –
26 | < 200 nM | O=C(O)c1ccc2c(c1)C(=O)N(c1cccc(-c3nncn3C3CC3)n1)C2 [Compound 73, 2-(6-(4-cyclopropyl-4H-1,2,4-triazol-3-yl)pyridin-2-yl)-3-oxoisoindoline-5-carboxylic acid] | –
27 | 200 to 1000 nM | CN(C)C(=O)c1ccc2c(c1)C(=O)N(c1cccc(-c3nncn3C3CC3)n1)C2 [Compound 74, 2-(6-(4-cyclopropyl-4H-1,2,4-triazol-3-yl)pyridin-2-yl)-N,N-dimethyl-3-oxoisoindoline-5-carboxamide] | –
28 | 200 to 1000 nM | O=C1c2ccccc2CN1c1cccc(-c2nnc3n2CCC3)n1 [Compound 76, 2-(6-(6,7-dihydro-5H-pyrrolo[2,1-c][1,2,4]triazol-3-yl)pyridin-2-yl)isoindolin-1-one] | –
29 | 1000 to 10000 nM | O=C1c2ccccc2CN1c1cccc(-c2nnc3n2CCCC3)n1 [Compound 77, 2-(6-(5,6,7,8-Tetrahydro-[1,2,4]triazolo[4,3-a]pyridin-3-yl)pyridin-2-yl)isoindolin-1-one] | –
30 | < 200 nM | O=C1c2ccccc2CN1c1cccc(-c2nnc3n2[C@@H](CO)CC3)n1 [Compound 79, (R)-2-(6-(5-(hydroxymethyl)-6,7-dihydro-5H-pyrrolo[2,1-c][1,2,4]triazol-3-yl)pyridin-2-yl)isoindolin-1-one] | –
31 | < 200 nM | CC(C)n1cnnc1-c1cccc(N2Cc3ccc(-c4cccnc4)cc3C2=O)n1 [Compound 85, 2-(6-(4-isopropyl-4H-1,2,4-triazol-3-yl)pyridin-2-yl)-6-(pyridin-3-yl)isoindolin-1-one] | –
32 | 1000 to 10000 nM | Cn1c2ccccc2c(=O)n1-c1cccc(-c2nncn2C2CC2)n1 [Compound 88, 2-(6-(4-cyclopropyl-4H-1,2,4-triazol-3-yl)pyridin-2-yl)-1-methyl-1,2-dihydro-3H-indazol-3-one] | –

— patent US10150755B2, “ASK1 inhibitor compounds and uses thereof” (Seal Rock Therapeutics, Inc., priority 2017, dated 2018)
